Measurements reported in PubChem BioAssay AID2060489 (Molecular Pharmacology Branch, DTP, NCI, 2025).

Test system: 922993-354-T-J3-PDC complex spheroids, viability
Experiment: Anticancer human tumor 922993-354-T-J3-PDC patient-derived endometrial carcinoma cell line growth inhibition [GQUAD]
Conditions: for IC50: curve of first compound; for viability, T/C: stronger effect = lower value
Method in brief: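 Tumor cells were grown as complex spheroids with HUVEC endothelial cells and mesenchymal stem cells as stroma. G-quadruplex stabilizers were combined with targeted agents over half-log dilutions from near the clinical Cmax, or from 10 microM.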

[1] = second compound 0.0316 µM, first compound 0.0316 µM
[2] = second compound 0.0316 µM, first compound 0.1 µM
[3] = second compound 0.0316 µM, first compound 0.316 µM
[4] = second compound 0.0316 µM, first compound 1 µM
[5] = second compound 0.0316 µM, first compound 3.16 µM
[6] = second compound 0.0316 µM, first compound 10 µM
[7] = second compound 0.1 µM, first compound 0.0316 µM
[8] = second compound 0.1 µM, first compound 0.1 µM
[9] = second compound 0.1 µM, first compound 0.316 µM
[10] = second compound 0.1 µM, first compound 1 µM
[11] = second compound 0.1 µM, first compound 3.16 µM
[12] = second compound 0.1 µM, first compound 10 µM
[13] = second compound 0.316 µM, first compound 0.0316 µM
[14] = second compound 0.316 µM, first compound 0.1 µM
[15] = second compound 0.316 µM, first compound 0.316 µM
[16] = second compound 0.316 µM, first compound 1 µM
[17] = second compound 0.316 µM, first compound 3.16 µM
[18] = second compound 0.316 µM, first compound 10 µM
[19] = second compound 1 µM, first compound 0.0316 µM
[20] = second compound 1 µM, first compound 0.1 µM
[21] = second compound 1 µM, first compound 0.316 µM
[22] = second compound 1 µM, first compound 1 µM
[23] = second compound 1 µM, first compound 3.16 µM
[24] = second compound 1 µM, first compound 10 µM
[25] = second compound 3.16 µM, first compound 0.0316 µM
[26] = second compound 3.16 µM, first compound 0.1 µM
[27] = second compound 3.16 µM, first compound 0.316 µM
[28] = second compound 3.16 µM, first compound 1 µM
[29] = second compound 3.16 µM, first compound 3.16 µM
[30] = second compound 3.16 µM, first compound 10 µM
[31] = second compound 10 µM, first compound 0.0316 µM
[32] = second compound 10 µM, first compound 0.1 µM
[33] = second compound 10 µM, first compound 0.316 µM
[34] = second compound 10 µM, first compound 1 µM
[35] = second compound 10 µM, first compound 3.16 µM
[36] = second compound 10 µM, first compound 10 µM
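Also: spheroids exposed to compounds for seven days.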
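For viability, T/C in this document: 100% = DMSO vehicle control viability.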

Structure (SMILES): CC(C)(O)C1CCC(Nc2ccc3ncc(-c4cccc(C(F)(F)F)c4)n3n2)CC1 (stereo not drawn) + CN(C)c1ccc(Nc2c3ccc(NC(=O)CCN4CCCC4)cc3nc3cc(NC(=O)CCN4CCCC4)ccc23)cc1
- IC50 (second compound 0.0316 µM): > 10 µM
- IC50 (second compound 0.1 µM): > 10 µM
- IC50 (second compound 0.316 µM): > 10 µM
- IC50 (second compound 1 µM): > 10 µM
- IC50 (second compound 3.16 µM): > 10 µM
- IC50 (second compound 10 µM): > 10 µM
- viability, T/C [1]: 78.5%
- viability, T/C [2]: 92.8%
- viability, T/C [3]: 99.9%
- viability, T/C [4]: 80.2%
- viability, T/C [5]: 85.1%
- viability, T/C [6]: 92.3%
- viability, T/C [7]: 100%
- viability, T/C [8]: 91%
- viability, T/C [9]: 88.6%
- viability, T/C [10]: 87.6%
- viability, T/C [11]: 76.6%
- viability, T/C [12]: 81.2%
- viability, T/C [13]: 108%
- viability, T/C [14]: 83%
- viability, T/C [15]: 96.5%
- viability, T/C [16]: 89.7%
- viability, T/C [17]: 58%
- viability, T/C [18]: 63.3%
- viability, T/C [19]: 69.5%
- viability, T/C [20]: 96.2%
- viability, T/C [21]: 79%
- viability, T/C [22]: 75.2%
- viability, T/C [23]: 78.9%
- viability, T/C [24]: 61.2%
- viability, T/C [25]: 92%
- viability, T/C [26]: 95%
- viability, T/C [27]: 90.4%
- viability, T/C [28]: 94.3%
- viability, T/C [29]: 85%
- viability, T/C [30]: 74.4%
- viability, T/C [31]: 120%
- viability, T/C [32]: 140%
- viability, T/C [33]: 103%
- viability, T/C [34]: 88.8%
- viability, T/C [35]: 78.3%
- viability, T/C [36]: 55%

Structure (SMILES): Nc1ccn(C2OC(CO)C(O)C2(F)F)c(=O)n1 (stereo not drawn) + CN(C)c1ccc(Nc2c3ccc(NC(=O)CCN4CCCC4)cc3nc3cc(NC(=O)CCN4CCCC4)ccc23)cc1
- IC50 (second compound 0.0316 µM): < 0.0316 µM
- IC50 (second compound 0.1 µM): < 0.0316 µM
- IC50 (second compound 0.316 µM): < 0.0316 µM
- IC50 (second compound 1 µM): < 0.0316 µM
- IC50 (second compound 3.16 µM): < 0.0316 µM
- IC50 (second compound 10 µM): < 0.0316 µM
- viability, T/C [1]: 13.6%
- viability, T/C [2]: 14.7%
- viability, T/C [3]: 11.9%
- viability, T/C [4]: 16.6%
- viability, T/C [5]: 10.6%
- viability, T/C [6]: 12.7%
- viability, T/C [7]: 13.4%
- viability, T/C [8]: 13.2%
- viability, T/C [9]: 12.2%
- viability, T/C [10]: 10.8%
- viability, T/C [11]: 10.4%
- viability, T/C [12]: 11.9%
- viability, T/C [13]: 13.9%
- viability, T/C [14]: 9.77%
- viability, T/C [15]: 10.7%
- viability, T/C [16]: 13.1%
- viability, T/C [17]: 9.83%
- viability, T/C [18]: 11.2%
- viability, T/C [19]: 12.5%
- viability, T/C [20]: 8.2%
- viability, T/C [21]: 12%
- viability, T/C [22]: 13%
- viability, T/C [23]: 12%
- viability, T/C [24]: 11.8%
- viability, T/C [25]: 13.8%
- viability, T/C [26]: 11.6%
- viability, T/C [27]: 16.8%
- viability, T/C [28]: 12.2%
- viability, T/C [29]: 11.3%
- viability, T/C [30]: 13.3%
- viability, T/C [31]: 15.8%
- viability, T/C [32]: 11.4%
- viability, T/C [33]: 11.6%
- viability, T/C [34]: 14.4%
- viability, T/C [35]: 11%
- viability, T/C [36]: 11.3%

Structure (SMILES): COc1cccc2c1C(=O)c1c(O)c3c(c(O)c1C2=O)CC(O)(C(=O)CO)CC3OC1CC(N)C(O)C(C)O1 (stereo not drawn) + CN(C)c1ccc(Nc2c3ccc(NC(=O)CCN4CCCC4)cc3nc3cc(NC(=O)CCN4CCCC4)ccc23)cc1
- IC50 (second compound 0.0316 µM): 1.66 µM
- IC50 (second compound 0.1 µM): 2.79 µM
- IC50 (second compound 0.316 µM): 4.11 µM
- IC50 (second compound 1 µM): 5.55 µM
- IC50 (second compound 3.16 µM): 5.92 µM
- IC50 (second compound 10 µM): 6.47 µM
- viability, T/C [1]: 91.1%
- viability, T/C [2]: 98%
- viability, T/C [3]: 108%
- viability, T/C [4]: 61.5%
- viability, T/C [5]: 45.6%
- viability, T/C [6]: 25.1%
- viability, T/C [7]: 103%
- viability, T/C [8]: 85.5%
- viability, T/C [9]: 90.6%
- viability, T/C [10]: 87.8%
- viability, T/C [11]: 45.4%
- viability, T/C [12]: 34.1%
- viability, T/C [13]: 94%
- viability, T/C [14]: 94.8%
- viability, T/C [15]: 67.3%
- viability, T/C [16]: 78.5%
- viability, T/C [17]: 55.7%
- viability, T/C [18]: 31.9%
- viability, T/C [19]: 92.4%
- viability, T/C [20]: 85.6%
- viability, T/C [21]: 76.3%
- viability, T/C [22]: 73.9%
- viability, T/C [23]: 78.7%
- viability, T/C [24]: 20.8%
- viability, T/C [25]: 103%
- viability, T/C [26]: 98.4%
- viability, T/C [27]: 104%
- viability, T/C [28]: 86.5%
- viability, T/C [29]: 81%
- viability, T/C [30]: 26.4%
- viability, T/C [31]: 112%
- viability, T/C [32]: 120%
- viability, T/C [33]: 93.4%
- viability, T/C [34]: 97.6%
- viability, T/C [35]: 80%
- viability, T/C [36]: 32.6%

Structure (SMILES): C#Cc1c(F)ccc2cc(O)cc(-c3ncc4c(N5CC6CCC(C5)N6)nc(OCC56CCCN5CC(F)C6)nc4c3F)c12 (stereo not drawn) + Cc1cnc(CNC(=O)c2c(=O)c3ccc(N4CCCN(C)CC4)nc3n3c2sc2ccccc23)cn1
- IC50 (second compound 0.0316 µM): > 10 µM
- IC50 (second compound 0.1 µM): > 10 µM
- IC50 (second compound 0.316 µM): 0.0894 µM
- IC50 (second compound 1 µM): < 0.0316 µM
- IC50 (second compound 3.16 µM): < 0.0316 µM
- IC50 (second compound 10 µM): < 0.0316 µM
- viability, T/C [1]: 75.3%
- viability, T/C [2]: 81.8%
- viability, T/C [3]: 74.4%
- viability, T/C [4]: 70%
- viability, T/C [5]: 86.9%
- viability, T/C [6]: 56.8%
- viability, T/C [7]: 64.3%
- viability, T/C [8]: 70.2%
- viability, T/C [9]: 56%
- viability, T/C [10]: 51.6%
- viability, T/C [11]: 54%
- viability, T/C [12]: 61.1%
- viability, T/C [13]: 61.9%
- viability, T/C [14]: 51.4%
- viability, T/C [15]: 42.5%
- viability, T/C [16]: 37%
- viability, T/C [17]: 41.2%
- viability, T/C [18]: 50.3%
- viability, T/C [19]: 42.1%
- viability, T/C [20]: 45.2%
- viability, T/C [21]: 38.4%
- viability, T/C [22]: 36.2%
- viability, T/C [23]: 50.2%
- viability, T/C [24]: 44.5%
- viability, T/C [25]: 46.6%
- viability, T/C [26]: 43.8%
- viability, T/C [27]: 42.2%
- viability, T/C [28]: 44.6%
- viability, T/C [29]: 45.9%
- viability, T/C [30]: 42.5%
- viability, T/C [31]: 40.5%
- viability, T/C [32]: 38.7%
- viability, T/C [33]: 39.3%
- viability, T/C [34]: 44.8%
- viability, T/C [35]: 40.3%
- viability, T/C [36]: 34.2%
